What was measured:
HepG2 cell line = assay: MTT cytotoxicity assay, HepG2; format: cell-based; settings: for IC50: Homo sapiens, HepG2, read-out: IC50 HepG2; for Selectivity index: fold more toxic against HepG2 than VERO cells: VERO IC50 / HepG2 IC50
MCF-7 cell line = assay: MTT cytotoxicity assay, MCF-7; format: cell-based; settings: for IC50: Homo sapiens, MCF7, read-out: IC50 MCF-7; for Selectivity index: fold more toxic in MCF-7 than in VERO cells: VERO IC50 / MCF-7 IC50
HCT116 cell line = assay: MTT cytotoxicity assay, HCT116; format: cell-based; settings: for IC50: Homo sapiens, HCT-116, read-out: IC50 HCT116; for Selectivity index: fold grander lethalness in HCT116 than in VERO cells: VERO IC50 / HCT116 IC50
A549 cell line = assay: MTT cytotoxicity assay, A549; format: cell-based; settings: for IC50: Homo sapiens, A549, read-out: IC50 A549; for Selectivity index: fold more toxicity in A549 than in VERO cells: VERO IC50 / A549 IC50
EGFR^WT = EGFR^WT (Homo sapiens, UniProt P00533); assay: In vitro EGFR^WT kinase inhibitory assay; format: biochemical; settings: mean ± SD of three separate experiments
Chain of EGFR^WT (P00533 25-1210): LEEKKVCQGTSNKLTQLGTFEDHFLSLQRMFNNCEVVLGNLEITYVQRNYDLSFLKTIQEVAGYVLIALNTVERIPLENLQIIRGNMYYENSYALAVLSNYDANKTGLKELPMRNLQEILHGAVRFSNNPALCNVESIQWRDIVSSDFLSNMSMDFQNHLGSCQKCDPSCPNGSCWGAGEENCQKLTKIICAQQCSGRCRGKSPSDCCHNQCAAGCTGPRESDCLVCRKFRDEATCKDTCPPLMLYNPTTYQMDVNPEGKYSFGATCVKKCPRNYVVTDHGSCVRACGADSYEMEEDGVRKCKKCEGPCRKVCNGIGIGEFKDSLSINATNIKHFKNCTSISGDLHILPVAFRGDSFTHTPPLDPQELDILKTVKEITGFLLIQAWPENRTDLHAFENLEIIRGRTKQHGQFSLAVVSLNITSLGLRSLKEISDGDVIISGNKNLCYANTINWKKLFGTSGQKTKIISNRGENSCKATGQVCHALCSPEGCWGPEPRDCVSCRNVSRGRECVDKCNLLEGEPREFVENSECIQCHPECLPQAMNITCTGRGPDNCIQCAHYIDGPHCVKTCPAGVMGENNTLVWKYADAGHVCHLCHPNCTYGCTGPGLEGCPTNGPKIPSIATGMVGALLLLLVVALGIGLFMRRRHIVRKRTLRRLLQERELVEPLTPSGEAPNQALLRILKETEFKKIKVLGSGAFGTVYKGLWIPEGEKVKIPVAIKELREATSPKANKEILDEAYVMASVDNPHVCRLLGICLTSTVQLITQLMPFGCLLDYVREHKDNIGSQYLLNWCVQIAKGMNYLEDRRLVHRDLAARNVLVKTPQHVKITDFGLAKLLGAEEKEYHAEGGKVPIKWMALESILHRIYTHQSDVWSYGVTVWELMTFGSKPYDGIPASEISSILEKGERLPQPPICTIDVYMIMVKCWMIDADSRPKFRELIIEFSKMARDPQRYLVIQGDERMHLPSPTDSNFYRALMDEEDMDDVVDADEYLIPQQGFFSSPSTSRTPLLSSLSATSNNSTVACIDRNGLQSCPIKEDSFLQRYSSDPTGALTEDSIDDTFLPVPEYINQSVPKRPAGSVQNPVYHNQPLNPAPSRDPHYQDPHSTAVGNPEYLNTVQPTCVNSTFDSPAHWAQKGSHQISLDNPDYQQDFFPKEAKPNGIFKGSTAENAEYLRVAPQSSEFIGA

EGFR^T790M = EGFR^T790M (Homo sapiens, UniProt P00533, T790M); assay: In vitro EGFR^T790M kinase inhibitory assay; format: biochemical; settings: HTRF kinase assay, mean ± SD of three separate experiments
Chain of EGFR^T790M (P00533 25-1210 T790M): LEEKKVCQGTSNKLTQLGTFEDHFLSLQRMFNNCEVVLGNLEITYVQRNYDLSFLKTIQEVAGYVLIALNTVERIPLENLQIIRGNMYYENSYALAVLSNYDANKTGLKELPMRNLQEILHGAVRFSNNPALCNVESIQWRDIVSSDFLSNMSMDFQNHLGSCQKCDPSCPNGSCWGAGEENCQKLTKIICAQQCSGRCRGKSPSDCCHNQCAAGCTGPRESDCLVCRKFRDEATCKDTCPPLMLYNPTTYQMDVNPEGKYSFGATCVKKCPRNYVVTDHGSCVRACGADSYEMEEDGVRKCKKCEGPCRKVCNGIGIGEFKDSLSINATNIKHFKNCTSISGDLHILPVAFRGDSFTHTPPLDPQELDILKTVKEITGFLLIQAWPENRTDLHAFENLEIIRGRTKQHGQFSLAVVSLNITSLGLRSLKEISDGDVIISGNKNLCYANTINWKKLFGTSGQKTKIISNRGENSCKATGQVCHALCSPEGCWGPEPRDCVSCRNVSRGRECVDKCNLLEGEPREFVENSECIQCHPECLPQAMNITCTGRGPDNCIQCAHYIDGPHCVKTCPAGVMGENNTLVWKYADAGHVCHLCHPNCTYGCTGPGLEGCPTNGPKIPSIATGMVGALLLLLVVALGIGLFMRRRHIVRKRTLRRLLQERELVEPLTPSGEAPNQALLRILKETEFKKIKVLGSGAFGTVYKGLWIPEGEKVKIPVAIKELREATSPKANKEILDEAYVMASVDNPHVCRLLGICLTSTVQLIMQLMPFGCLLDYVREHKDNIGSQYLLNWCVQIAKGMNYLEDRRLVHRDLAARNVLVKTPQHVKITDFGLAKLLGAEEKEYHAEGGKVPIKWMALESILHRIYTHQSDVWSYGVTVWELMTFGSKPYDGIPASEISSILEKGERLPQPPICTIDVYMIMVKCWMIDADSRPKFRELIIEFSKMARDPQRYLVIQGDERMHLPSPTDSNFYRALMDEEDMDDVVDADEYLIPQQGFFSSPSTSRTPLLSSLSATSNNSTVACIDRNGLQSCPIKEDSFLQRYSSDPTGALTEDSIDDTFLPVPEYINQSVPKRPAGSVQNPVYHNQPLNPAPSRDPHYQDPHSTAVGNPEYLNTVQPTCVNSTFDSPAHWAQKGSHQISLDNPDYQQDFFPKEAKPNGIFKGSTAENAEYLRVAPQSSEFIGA

SMILES	IC50 (HepG2 cell line)	IC50 (MCF-7 cell line)	IC50 (HCT116 cell line)	IC50 (A549 cell line)	IC50 (EGFR^WT)	IC50 (EGFR^T790M)	Selectivity index: fold more toxic against HepG2 than VERO cells (HepG2 cell line)	Selectivity index: fold more toxic in MCF-7 than in VERO cells (MCF-7 cell line)	Selectivity index: fold grander lethalness in HCT116 than in VERO cells (HCT116 cell line)	Selectivity index: fold more toxicity in A549 than in VERO cells (A549 cell line)
C=CCn1c(=O)n(CC(=O)Nc2ccc(C(=O)NCC)cc2)c(=O)c2cc(I)ccc21 [Compound 5b, 4-{2-[1-Allyl-6-iodo-2,4-dioxo-1,4-dihydroquinazolin-3(2H)-yl]acetamido}-N-ethylbenzamide]	12.5 ± 1 µM	11.3 ± 1.1 µM	11 ± 1.3 µM	9.5 ± 1.5 µM	1 ± 0.15 µM	1.33 ± 0.1 µM	–	–	–	–
C=CCn1c(=O)n(CC(=O)Nc2ccc(C(=O)OC)cc2)c(=O)c2cc(I)ccc21 [Compound 6a, Methyl 4-{2-[1-allyl-6-iodo-2,4-dioxo-1,4-dihydroquinazolin-3(2H)-yl]acetamido}benzoate]	13 ± 1.4 µM	12.2 ± 1.7 µM	12.1 ± 1.5 µM	10.4 ± 1.5 µM	1.15 ± 0.25 µM	1.54 ± 0.5 µM	–	–	–	–
Cc1nnc(-c2ccc(NC(=O)Cn3c(=O)c4cc(I)ccc4n(Cc4ccccc4)c3=O)cc2)o1 [Compound 17, 2-[1-Benzyl-6-iodo-2,4-dioxo-1,4-dihydroquinazolin-3(2H)-yl]-N-[4-(5-methyl-1,3,4-oxadiazol-2-yl)phenyl]acetamide]	5.55 ± 0.7 µM	6.85 ± 0.9 µM	5.4 ± 1.5 µM	5.11 ± 1.1 µM	0.15 ± 0.35 µM	0.3 ± 0.5 µM	8.31 fold	6.73 fold	–	–
NNC(=O)c1ccc(NC(=O)Cn2c(=O)c3cc(I)ccc3n(Cc3ccccc3)c2=O)cc1 [Compound 15, 2-[1-Benzyl-6-iodo-2,4-dioxo-1,4-dihydroquinazolin-3(2H)-yl]-N-[4-(hydrazinecarbonyl)phenyl]acetamide]	9.5 ± 1 µM	8.8 ± 1 µM	8.95 ± 1 µM	8.18 ± 1 µM	0.65 ± 0.15 µM	0.8 ± 0.1 µM	5.49 fold	5.92 fold	5.82 fold	6.37 fold
C=CCn1c(=O)n(CC(=O)Nc2ccc(C(=O)OCC)cc2)c(=O)c2cc(I)ccc21 [Compound 6b, Ethyl 4-{2-[1-allyl-6-iodo-2,4-dioxo-1,4-dihydroquinazolin-3(2H)-yl]acetamido}benzoate]	11.6 ± 1.8 µM	11 ± 1.6 µM	9.79 ± 1.8 µM	9.39 ± 1.5 µM	0.95 ± 0.35 µM	1.12 ± 0.5 µM	–	–	–	–
Cc1cc(C)n(-c2ccc(NC(=O)Cn3c(=O)c4cc(I)ccc4n(Cc4ccccc4)c3=O)cc2)n1 [Compound 18, 2-[1-Benzyl-6-iodo-2,4-dioxo-1,4-dihydroquinazolin-3(2H)-yl]-N-[4-(3,5-dimethyl-1H-pyrazol-1-yl)phenyl]acetamide]	5.25 ± 0.7 µM	6.46 ± 0.9 µM	5.68 ± 1.5 µM	5.24 ± 1.1 µM	0.17 ± 0.35 µM	0.25 ± 0.5 µM	8.67 fold	7.04 fold	–	–
C=CCn1c(=O)n(CC(=O)Nc2ccc(-n3nc(C)cc3C)cc2)c(=O)c2cc(I)ccc21 [Compound 10, 2-[1-Allyl-6-iodo-2,4-dioxo-1,4-dihydroquinazolin-3(2H)-yl]-N-[4-(3,5-dimethyl-1H-pyrazol-1-yl)phenyl]acetamide]	7.35 ± 1 µM	7.85 ± 0.9 µM	6.96 ± 1.1 µM	6.9 ± 1.5 µM	0.38 ± 0.35 µM	0.54 ± 0.5 µM	5.91 fold	5.53 fold	6.24 fold	6.30 fold
